The test system of series [1] is SKOV-3 ovarian cancer cell. As to the kind of experiment: In vitro cytotoxicity of dolastatin derivatives (PrestoBlue cell viability). As to conditions: for IC50: concentration range wherein SKOV-3 cell viability falls to 50%, 96 h, measured range 1 nM-10 μM; for cytotoxicity compared to 1 (MMAF): SKOV-3, applied to cell culture medium; for cytotoxicity compared to 2 (monomethyldolastatin 10): SKOV-3. The series is classed as cell-based, Human. How it is done: Human ovarian cancer cell line SKOV-3 was from the ATCC (Manassas, Va., USA). The cells were grown according to the manufacturer's recommendations. Log phase cultures were collected and 5000 cells/well were seeded onto 96-well plates and incubated for 24 h. Serial dilutions of test molecules from a stock solution of 100 μM in 10% DMSO were made in cell culture medium, added to cells (maximum concentration of dimethylsulphoxide was 1%) and cultures were incubated further for 96 h. Cell viability was evaluated using PrestoBlue cell viability reagent (Life Technologies, Carlsbad, Calif., USA) according to the manufacturer's instructions. Cells were incubated for 2 h, and dye reduction was measured by absorbance at 570 nm. The compounds were assayed 1-2 times in triplicate.
Results of an exemplary assay are shown in FIG. 1, in which compound numbering is according to Example 1. The results are expressed in Table 1 as IC50 values of the analyzed derivatives.

Series [2] is described as follows: Hydrophilicity by reverse-phase HPLC elution. The series is classed as physicochemical. As to conditions: C-18 reverse-phase column, eluted at lower ACN concentration. An excerpt: The products were purified by Äkta purifier 10 (GE Healthcare) HPLC instrument with Gemini-NX-5u C-18 reverse-phase column (4.6×250 mm, 110 Å (Phenomenex)) eluted with ACN gradient in aqueous ammonium hydrogen carbonate or aqueous trifluoroacetic acid.

These results are taken from patent publication US10973922B2, “Glycoprotein-toxic payload conjugates” (GLYKOS FINLAND OY, priority 2013, dated 2021).

By IC50 is commonly meant the concentration needed to halve the response being measured. A low value points to higher potency.

Where a SMILES comes first, the peptide text is derived from it. [ ]: non-standard residue; d: D form. Dolaproine = CO[C@@H]([C@@H]1CCCN1)[C@@H](C)C(=O)O; Dil = CC[C@H](C)[C@H](NC)[C@@H](CC(=O)O)OC; NMeV = CN[C@H](C(=O)O)C(C)C Some results are limits rather than exact numbers.

Regarding `CC[C@H](C)[C@@H]([C@@H](CC(=O)N1CCC[C@H]1[C@H](OC)[C@@H](C)C(=O)N[C@@H](Cc1ccccc1)C(=O)O)OC)N(C)C(=O)[C@@H](NC(=O)[C@@H](NC)C(C)C)C(C)C` [Compound 1, Monomethylauristatin F, reference compound] (H-[NMeV]V[Dil][Dolaproine]F-OH), the IC50 in series [1] was 100 to 1000 nM.

In the case of `CN[C@H](C(=O)N[C@H](C(=O)N(C)[C@@H](C(C)C)[C@@H](CC(=O)N1CCC[C@H]1[C@H](OC)[C@@H](C)C(=O)N[C@@H](Cc1ccccc1)c1nccs1)OC)C(C)C)C(C)C` [Compound 2, monomethyldolastatin 10, reference compound], the IC50 in series [1] is less than 1 nM.

`CCC(C)C(C(CC(=O)N1CCCC1C(OC)C(C)C(=O)NC(Cc1ccccc1)C(=O)O)OC)N(C)C(=O)C(NC(=O)C(C(C)C)N(C)CCC(O)C(O)C(O)CO)C(C)C` [Compound 5, N-(2-deoxy-D-glucosyl)-MMAF] returned an IC50 in series [1] (Homo sapiens, SK-OV-3) of 1000 nM. Besides, the “cytotoxicity compared to 1 (MMAF)” value in series [1] is recorded as “equally or only slightly less cytotoxic”. In series [2], the “hydrophilicity compared to MMAF (1) and N-(3-butynyl)-MMAF (6)” value is “more hydrophilic”.

On to `C#CCCN(C)C(C(=O)NC(C(=O)N(C)C(C(C)CC)C(CC(=O)N1CCCC1C(OC)C(C)C(=O)NC(Cc1ccccc1)C(=O)O)OC)C(C)C)C(C)C` (stereo not drawn) [Compound 6, N-(3-butynyl)-MMAF], for which, in series [1] (Homo sapiens, SK-OV-3), the IC50 is less than 1 nM. The “cytotoxicity compared to 1 (MMAF)” value in series [1] was “more cytotoxic”.

For the compound `CCC(C)C(C(CC(=O)N1CCCC1C(OC)C(C)C(=O)NC(Cc1ccccc1)C(=O)O)OC)N(C)C(=O)C(NC(=O)C(C(C)C)N(C)CC(O)C(O)C(O)C(O)COC1OC(CO)C(O)C(O)C1O)C(C)C` [Compound 8, N-[6-O-(β-D-galactopyranosyl)-D-galactosyl]-MMAF], the IC50 in series [1] (Homo sapiens, SK-OV-3) fell in the range of 1000 to 10000 nM. In addition, the “cytotoxicity compared to 1 (MMAF)” value in series [1] was “less cytotoxic”.

As to `CCC(C)C(C(CC(=O)N1CCCC1C(OC)C(C)C(=O)NC(Cc1ccccc1)C(=O)O)OC)N(C)C(=O)C(NC(=O)C(C(C)C)N(C)CC(O)C(O)C(OC1OC(CO)C(OC2OC(CO)C(O)C(O)C2O)C(O)C1O)C(O)CO)C(C)C` [Compound 10, N-{4-O-[4-O-(α-D-galactopyranosyl)-β-D-galactopyranosyl]-D-glucosyl}-MMAF], in series [1] (Homo sapiens, SK-OV-3), the IC50 lay within 1000 to 10000 nM.

Turning to `CCC(C)C(C(CC(=O)N1CCCC1C(OC)C(C)C(=O)NC(Cc1ccccc1)C(=O)O)OC)N(C)C(=O)C(NC(=O)C(C(C)C)N(C)CC(O)C(O)C(OC1OC(CO)C(O)C(OC2(C(=O)O)CC(O)C(NC(C)=O)C(C(O)C(O)CO)O2)C1O)C(O)CO)C(C)C` [Compound 11, N-{4-O-[3-O-(α-N-acetylneuraminyl)-β-D-galactopyranosyl]-D-glucosyl}-MMAF], in series [1], the “cytotoxicity compared to 1 (MMAF)” value is listed as “less cytotoxic” and the IC50 is greater than 10000 nM.

As for `CCC(C)C(C(CC(=O)N1CCCC1C(OC)C(C)C(=O)NC(Cc1ccccc1)c1nccs1)OC)N(C)C(=O)C(NC(=O)C(C(C)C)N(C)CC(O)C(O)C(O)C(O)CN=[N+]=[N-])C(C)C` [Compound 13, N-(6-azido-6-deoxy-D-galactosyl)-dolastatin 10], the IC50 in series [1] (Homo sapiens, SK-OV-3) was less than 1 nM. In addition, the “cytotoxicity compared to 2 (monomethyldolastatin 10)” value in series [1] is given as “equally or only slightly less cytotoxic”.

As to `CCC(C)C(C(CC(=O)N1CCCC1C(OC)C(C)C(=O)NC(Cc1ccccc1)C(=O)O)OC)N(C)C(=O)C(NC(=O)C(C(C)C)N(C)C(=O)CCCC(=O)O)C(C)C` (stereo not drawn) [Compound 14b, N-glutaryl-MMAF], the IC50 in series [1] (Homo sapiens, SK-OV-3) lay in the range of 100 to 1000 nM. Further, the “cytotoxicity compared to 2 (monomethyldolastatin 10)” value in series [1] is “equally or only slightly less cytotoxic”.

In the case of “N-(6-O-propargyl-D-galactosyl)-MMAF [Compound 3]”, the IC50 in series [1] lay in the range of 100 to 10000 nM.

In series [1], “N-(6-azido-6-deoxy-D-galactosyl)-MMAF [Compound 4]” came in with an IC50 of 100 to 1000 nM.
